Results taken from ChEMBL document CHEMBL3826911, “Rational design and synthesis of novel anti-prostate cancer agents bearing a 3,5-bis-trifluoromethylphenyl moiety” (Bioorg Med Chem Lett, 2016).

Assays:
LNCaP = assay: Antiproliferative activity against human LNCAP cells assessed as reduction in cell viability after 96 hrs by propidium iodide staining based fluorescence assay; type: functional
[1] = Antiproliferative activity against human DU145 cells assessed as reduction in cell viability after 96 hrs by propidium iodide staining based fluorescence assay; type: functional, DU-145
HepG2 = assay: Cytotoxicity against human HepG2 cells assessed as cell viability after 72 hrs by MTT assay; type: functional, cell-based; settings: for AC50 / minimal effective concentration: HepG2, 72 h; for minimal effective concentration: read-out: MEC
[2] = Antiproliferative activity against human VCaP cells assessed as reduction in cell viability after 96 hrs by propidium iodide staining based fluorescence assay; type: functional
CWR22R = assay: Antiproliferative activity against human 22Rv1 cells assessed as reduction in cell viability after 96 hrs by propidium iodide staining based fluorescence assay; type: functional
Albumin = Albumin (Homo sapiens, UniProt P02768); assay: Binding affinity to human serum albumin at 5 uM by equilibrium dialysis based LC-MS/MS analysis; type: ADME; settings: read-out: PB (converted)
Sequence of Albumin (P02768 whole entry): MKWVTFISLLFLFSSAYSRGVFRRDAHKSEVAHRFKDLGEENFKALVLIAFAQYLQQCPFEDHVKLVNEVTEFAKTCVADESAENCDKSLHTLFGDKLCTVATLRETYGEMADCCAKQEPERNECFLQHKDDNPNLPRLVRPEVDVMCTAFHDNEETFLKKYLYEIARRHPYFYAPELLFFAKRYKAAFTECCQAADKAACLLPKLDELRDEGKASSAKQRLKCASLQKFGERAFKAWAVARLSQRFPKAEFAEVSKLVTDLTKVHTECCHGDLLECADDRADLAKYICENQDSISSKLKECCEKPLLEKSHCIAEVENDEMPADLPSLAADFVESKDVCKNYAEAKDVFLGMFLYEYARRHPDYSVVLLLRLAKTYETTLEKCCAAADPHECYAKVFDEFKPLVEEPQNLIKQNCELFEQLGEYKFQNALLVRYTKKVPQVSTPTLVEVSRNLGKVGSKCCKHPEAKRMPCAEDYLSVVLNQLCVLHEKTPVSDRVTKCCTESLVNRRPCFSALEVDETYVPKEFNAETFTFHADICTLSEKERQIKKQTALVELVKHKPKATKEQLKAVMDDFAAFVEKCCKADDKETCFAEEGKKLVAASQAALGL

hERG (KCNH2) = hERG (KCNH2) (Homo sapiens, UniProt Q12809); assay: Inhibition of human ERG transfected in CHO cells assessed as blockade of tail current at 25 uM by patch clamp assay; type: cell-based; settings: CHO cells transfected with human ERG
Sequence of hERG (KCNH2) (Q12809 whole entry): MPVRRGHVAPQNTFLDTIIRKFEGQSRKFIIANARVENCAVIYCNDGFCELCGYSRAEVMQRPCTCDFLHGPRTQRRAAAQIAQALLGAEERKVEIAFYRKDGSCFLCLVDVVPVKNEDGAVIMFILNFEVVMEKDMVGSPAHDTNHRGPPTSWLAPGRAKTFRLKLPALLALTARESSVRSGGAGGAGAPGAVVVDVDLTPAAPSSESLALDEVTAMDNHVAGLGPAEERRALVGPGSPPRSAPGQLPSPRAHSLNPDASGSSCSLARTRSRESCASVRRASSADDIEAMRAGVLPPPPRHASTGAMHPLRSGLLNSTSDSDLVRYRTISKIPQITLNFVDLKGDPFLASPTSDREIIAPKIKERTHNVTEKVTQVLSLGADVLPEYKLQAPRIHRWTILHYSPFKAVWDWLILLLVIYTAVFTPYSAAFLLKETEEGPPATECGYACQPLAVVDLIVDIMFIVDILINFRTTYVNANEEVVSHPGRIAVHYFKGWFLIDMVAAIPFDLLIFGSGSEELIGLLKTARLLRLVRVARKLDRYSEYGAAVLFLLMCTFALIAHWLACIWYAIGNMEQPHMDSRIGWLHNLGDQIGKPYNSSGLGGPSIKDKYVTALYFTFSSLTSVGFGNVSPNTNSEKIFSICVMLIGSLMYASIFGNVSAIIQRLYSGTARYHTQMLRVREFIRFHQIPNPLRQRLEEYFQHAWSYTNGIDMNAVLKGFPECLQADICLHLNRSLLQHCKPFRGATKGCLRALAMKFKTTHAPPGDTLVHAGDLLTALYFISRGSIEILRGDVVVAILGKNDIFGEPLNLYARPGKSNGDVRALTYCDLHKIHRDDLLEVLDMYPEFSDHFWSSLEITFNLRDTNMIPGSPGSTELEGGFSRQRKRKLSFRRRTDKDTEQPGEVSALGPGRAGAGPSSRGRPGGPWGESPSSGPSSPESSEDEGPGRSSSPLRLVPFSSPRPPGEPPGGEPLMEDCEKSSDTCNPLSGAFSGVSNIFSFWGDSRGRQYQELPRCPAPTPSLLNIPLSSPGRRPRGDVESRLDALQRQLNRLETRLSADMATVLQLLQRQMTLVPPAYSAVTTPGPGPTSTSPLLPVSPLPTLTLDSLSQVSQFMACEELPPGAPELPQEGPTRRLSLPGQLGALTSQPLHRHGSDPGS

[3] = Half life in human liver microsomes at 3 uM in presence of NADPH by LC-MS/MS analysis; type: ADME
[4] = Homo sapiens, LNCaP, 96 h, read-out: IC50
[5] = Homo sapiens, DU-145, 96 h, read-out: IC50
[6] = Homo sapiens, VCaP, 96 h, read-out: IC50
[7] = Homo sapiens, 22Rv1, 96 h, read-out: IC50

Compound	IC50 (LNCaP; [4]) [µM]	IC50 [1, 5] [µM]	Activity (HepG2)	IC50 [2, 6] [µM]	IC50 (CWR22R; [7]) [µM]	fraction unbound at 5 µM (Albumin)	inhibition at 25 µM (hERG (KCNH2)) [%]	half-life at 3 µM [3] [h]	IC50 (LNCaP; lncap)	IC50 ([1]; du-145)	IC50 ([2]; vcap)	IC50 (CWR22R; cwr22r)	AC50 (HepG2) [µM]	minimal effective concentration (HepG2) [µM]
CC(O)(CS(=O)(=O)c1cccc(OC(F)(F)F)c1)C(=O)Nc1cc(C(F)(F)F)cc(C(F)(F)F)c1 (stereo not given)	9.34	14.1	Dose-dependent effect	9.99	12.8									
CNC(=O)c1ccc(N2C(=S)N(c3cc(C(F)(F)F)cc(C(F)(F)F)c3)C(=O)C2(C)C)cc1	11.3	47.9	Dose-dependent effect	19.8	26.4									
CC1(C)C(=O)N(c2ccc([N+](=O)[O-])cc2C(F)(F)F)C(=S)N1c1cc(C(F)(F)F)cc(C(F)(F)F)c1	4.67	10	Dose-dependent effect	18.6	6.97	0.001	9.44	1.19						
CC(O)(CSc1cc(C(F)(F)F)cc(C(F)(F)F)c1)C(=O)Nc1ccc(C(F)(F)F)cc1 (stereo not given)	9.61	16.4	Dose-dependent effect	9.88	9.75									
CC(O)(CS(=O)(=O)c1cc(C(F)(F)F)cc(C(F)(F)F)c1)C(=O)Nc1ccc(C#N)cc1C(F)(F)F (stereo not given)			Dose-dependent effect						ND(Insoluble)	ND(Insoluble)	ND(Insoluble)	ND(Insoluble)		
CC(O)(COc1cc(C(F)(F)F)cc(C(F)(F)F)c1)C(=O)Nc1ccc([N+](=O)[O-])c(C(F)(F)F)c1 (stereo not given)	0.99	2.9	Dose-dependent effect	1.66	1.09									
N#CC(C#N)=NNc1cccc(Cl)c1 [CARBONYL CYANIDE M-CHLOROPHENYLHYDRAZONE]													8.28	3.25
CC(O)(CSc1cccc(OC(F)(F)F)c1)C(=O)Nc1cc(C(F)(F)F)cc(C(F)(F)F)c1 (stereo not given)	7.76	9.61	Dose-dependent effect	9.29	6.42									
CC1(C)C(=O)N(c2ccc([N+](=O)[O-])c(C(F)(F)F)c2)C(=S)N1c1cc(C(F)(F)F)cc(C(F)(F)F)c1	9.93	18.1	Dose-dependent effect	28.4	20.2									
CC1(C)C(=O)N(c2ccc(C#N)c(C(F)(F)F)c2)C(=S)N1c1cc(C(F)(F)F)cc(C(F)(F)F)c1			Dose-dependent effect						ND(Insoluble)	ND(Insoluble)	ND(Insoluble)	ND(Insoluble)		
CNC(=O)c1ccc(N2C(=S)N(c3ccc(C#N)c(C(F)(F)F)c3)C(=O)C2(C)C)cc1F [ENZALUTAMIDE]	11.5	32.3	Dose-dependent effect	53										
CC(O)(CSc1cc(C(F)(F)F)cc(C(F)(F)F)c1)C(=O)Nc1ccc(C#N)cc1C(F)(F)F (stereo not given)	7.76	9.09	Dose-dependent effect	6.65	4.65									
CC(O)(CSc1cc(C(F)(F)F)cc(C(F)(F)F)c1)C(=O)Nc1ccc(C#N)c(C(F)(F)F)c1 (stereo not given)	2.34	2.85	Dose-dependent effect	2.73	1.9									
CC(O)(CS(=O)(=O)c1ccc(F)cc1)C(=O)Nc1ccc(C#N)c(C(F)(F)F)c1 (stereo not given)			Dose-dependent effect											
CC(O)(CSc1ccccc1C(F)(F)F)C(=O)Nc1cc(C(F)(F)F)cc(C(F)(F)F)c1 (stereo not given)	3.57	8.66	Dose-dependent effect	3.84	4.37									
CC(O)(CSc1cc(C(F)(F)F)cc(C(F)(F)F)c1)C(=O)Nc1ccc([N+](=O)[O-])cc1C(F)(F)F (stereo not given)	3.11	3.38	Dose-dependent effect	3.52	2.29									

Compound	IC50 (LNCaP; [4]) [µM]	IC50 [1, 5] [µM]	Activity (HepG2)	IC50 [2, 6] [µM]	IC50 (CWR22R; [7]) [µM]	fraction unbound at 5 µM (Albumin)	inhibition at 25 µM (hERG (KCNH2)) [%]	half-life at 3 µM [3] [h]	IC50 (LNCaP; lncap)	IC50 ([1]; du-145)	IC50 ([2]; vcap)	IC50 (CWR22R; cwr22r)	AC50 (HepG2) [µM]	minimal effective concentration (HepG2) [µM]
CC(O)(CS(=O)(=O)c1ccccc1OC(F)(F)F)C(=O)Nc1cc(C(F)(F)F)cc(C(F)(F)F)c1 (stereo not given)	8.02	12.9	Dose-dependent effect	9.95	8.99	0.217	13.4	4.83						
CC(O)(CS(=O)(=O)c1cc(C(F)(F)F)cc(C(F)(F)F)c1)C(=O)Nc1ccc([N+](=O)[O-])cc1C(F)(F)F (stereo not given)	3.09	3.05	Dose-dependent effect	7.11	2.41									
CC(O)(COc1cc(C(C)(C)C)cc(C(C)(C)C)c1)C(=O)Nc1ccc(C#N)c(C(F)(F)F)c1 (stereo not given)	2.67	3.15	Dose-dependent effect	2.98	2.27									
CC1(C)C(=O)N(c2ccc(C#N)cc2C(F)(F)F)C(=S)N1c1cc(C(F)(F)F)cc(C(F)(F)F)c1			Dose-dependent effect						ND(Insoluble)	ND(Insoluble)	ND(Insoluble)	ND(Insoluble)		
CC(O)(CS(=O)(=O)c1cccc(C(F)(F)F)c1)C(=O)Nc1cc(C(F)(F)F)cc(C(F)(F)F)c1 (stereo not given)	9.5	11.5	Dose-dependent effect	9.98	10.3									
C[C@](O)(CSc1cc(C(F)(F)F)cc(C(F)(F)F)c1)C(=O)Nc1ccc(C#N)c(C(F)(F)F)c1	0.79	2.66		0.84	1.13			0.108					2.35	1.22
CC(O)(CSc1cccc(C(F)(F)F)c1)C(=O)Nc1cc(C(F)(F)F)cc(C(F)(F)F)c1 (stereo not given)	8.75	10	Dose-dependent effect	9.86	9.67									
CN(C)CCCN1c2ccccc2Sc2ccc(Cl)cc21 [CHLORPROMAZINE]													7.62	2.07
CC(O)(CS(=O)(=O)c1cc(C(F)(F)F)cc(C(F)(F)F)c1)C(=O)Nc1ccc(C#N)c(C(F)(F)F)c1 (stereo not given)	2.86	5.58	Dose-dependent effect	6.21	3.11									
CC(O)(COc1cc(C(F)(F)F)cc(C(F)(F)F)c1)C(=O)Nc1ccc(C#N)c(C(F)(F)F)c1 (stereo not given)	3.01	4.7	Dose-dependent effect	2.47	2.64	0.053	7.64	32.2						
CC(O)(COc1cc(C(F)(F)F)cc(C(F)(F)F)c1)C(=O)Nc1ccc(C#N)cc1C(F)(F)F (stereo not given)	3.56	8.05	Dose-dependent effect	4.77	4.07									
CC(O)(COc1cc(C(F)(F)F)cc(C(F)(F)F)c1)C(=O)Nc1ccc(C(F)(F)F)cc1 (stereo not given)	3.35	9.23	Dose-dependent effect	4.15	8.49									
CC(O)(COc1cc(C(F)(F)F)cc(C(F)(F)F)c1)C(=O)Nc1ccc([N+](=O)[O-])cc1C(F)(F)F (stereo not given)	24	11.6	Dose-dependent effect	23.7	16.1									
CC(O)(CSc1ccccc1OC(F)(F)F)C(=O)Nc1cc(C(F)(F)F)cc(C(F)(F)F)c1 (stereo not given)	2.91	6.41	Dose-dependent effect	2.9	2.94									
CC(O)(CS(=O)(=O)c1ccccc1C(F)(F)F)C(=O)Nc1cc(C(F)(F)F)cc(C(F)(F)F)c1 (stereo not given)	8.51	11	Dose-dependent effect	8.55	9.45									
